Strand notation (5' to 3'): a small letter for the sugar, then the base; units joined by * are phosphorothioate-linked, units joined directly phosphodiester-linked; [ ] holds rarer units or linkages, { } end groups; capitals alone tell only the bases. d = 2'-deoxy (DNA)
How the values were obtained:
CD19+ B cells = assay: Human B cell proliferation assay (3H-thymidine incorporation); details: 2 μg/ml; for cpm1 / cpm2 / cpm3 / mean cpm / mean of both: B cells
mice = assay: Serum cytokines (IL-12 p40, IL-6, TNF-α) after subcutaneous injection in mice; assay type: in vivo; details: 20 ug subcutaneous, blood 2 hours later
Experimental: Blood was collected 2 hours later. For the LPS positive control group, mice were injected intraperitoneally with a 200 ul volume, and blood was collected 1.5 hours later (i.e., at the peak of LPS induced TNF-α activity). The blood was clotted and the serum was prepared and stored at −80° C. until assayed. Serum cytokines were assayed using Biosource cytoscreen kits for TNF-α and Pharmingen antibody pairs for mIL-6 and mIL-12. All samples were assayed in duplicate.

For “5′-TGACTGTGAACCTTAGAGATGA-3′ (SEQ ID NO: 3) (dT*dG*dA*dC*dT*dG*dT*dG*dA*dA*dC*dC*dT*dT*dA*dG*dA*dG*dA*dT*dG*dA) [Compound P-7, negative control, reference compound]”, the “B cell proliferation, in words” value (CD19+ B cells; 48 h plus 8 h 3H-thymidine pulse) was “little to no B cell proliferation”, the cpm1 (CD19+ B cells; Donor 146, Experiment A) was 4858 cpm and the cpm2 (CD19+ B cells; Donor 146, Experiment A) was 5810 cpm. For the same substance, the cpm3 (CD19+ B cells; Donor 146, Experiment A) was 7079 cpm, the mean cpm (CD19+ B cells; Donor 146 mean, Experiment A) was 5916 cpm and the cpm1 (CD19+ B cells; Donor 147, Experiment A) was 4364 cpm. It also gave a cpm2 (CD19+ B cells; Donor 147, Experiment A) of 4066 cpm, a cpm3 (CD19+ B cells; Donor 147, Experiment A) of 2774 cpm and a mean cpm (CD19+ B cells; Donor 147 mean, Experiment A) of 3735 cpm. The cpm1 (CD19+ B cells; donor 121, Experiment B) was 1623 cpm, the cpm2 (CD19+ B cells; donor 121, Experiment B) was 1821 cpm and the cpm3 (CD19+ B cells; donor 121, Experiment B) was 2901 cpm. For the same substance, the mean cpm (CD19+ B cells; donor 121 mean, Experiment B) was 2115 cpm, the cpm1 (CD19+ B cells; donor 194, Experiment B) was 1992 cpm and the cpm2 (CD19+ B cells; donor 194, Experiment B) was 1593 cpm. It also gave a cpm3 (CD19+ B cells; donor 194, Experiment B) of 1686 cpm, a mean cpm (CD19+ B cells; donor 194 mean, Experiment B) of 1757 cpm and a mean of both (CD19+ B cells; mean of Donors 146 and 147, Experiment A) of 4825 cpm. For the same substance, the mean of both (CD19+ B cells; mean of donors 121 and 194, Experiment B) was 1936 cpm and the “induction of serum IL-12 p40, IL-6 and TNF-α, in words” value (mice) was “inactive”.
